Results reported in patent US20240215584A1, “ARTICLE HAVING ANTIVIRAL PROPERTIES, ARTICLE HAVING ANTIMICROBIAL PROPERTIES, AND ARTICLE HAVING ANTIFUNGAL PROPERTIES” (NATIONAL INSTITUTE OF ADVANCED INDUSTRIAL SCIENCE AND …, priority 2021, published 2024).
In brackets after ≈: the same amount, converted by molar mass. Read-outs that look alike come from different tables or passages of the source.

What was measured:
[1] = tested on: methicillin-sensitive Staphylococcus aureus 209P; test: Minimum inhibitory concentration on bacteria; settings: 20 h, read-out: minimum inhibitory concentration (MIC)
Experimental: (§1) First, 100 μL per hole of a 96-hole test plate was prepared using a Mueller Hinton medium (CAMHB) (and blood added as needed) supplemented with 20 mg/L of Ca^2+ and 10 mg/L of Mg^2+ to give a 2-fold dilution series. […] Each bacterium was cultured in CAMHB (blood added as needed) and added to each of the holes of the test plate at approximately 10000 CFU/mL. The cultures were cultivated at 37° C. for 20 hours, and growth of the bacteria was visually confirmed, and the lowest concentration without growth of the bacteria was defined as the minimum inhibitory concentration (MIC: Minimum Inhibitory Concentration).
(§2) As the bacteria, methicillin-sensitive Staphylococcus aureus 209P, methicillin-resistant Staphylococcus aureus N3115, methicillin-resistant Staphylococcus aureus OM584, vancomycin moderate resistant Staphylococcus aureus Mu50, Pseudomonas aeruginosa wild strain PAO1, Pseudomonas aeruginosa resistance gene quadruple disruption strain YM64, Fecaris ATCC29212, Vancomycin-resistant Fecaris ATCC51299, and Vancomycin-resistant Fecaris NCTC12201 were used.

[2] = tested on: methicillin-resistant Staphylococcus aureus N3115; test: Minimum inhibitory concentration on bacteria; settings: 20 h, read-out: minimum inhibitory concentration (MIC)
Experimental: as §1, §2

[3] = tested on: methicillin-resistant Staphylococcus aureus OM584; test: Minimum inhibitory concentration on bacteria; settings: 20 h, read-out: minimum inhibitory concentration (MIC)
Experimental: (§3) First, a method for measuring the minimum inhibitory concentration on the bacteria will be described. First, 100 μL per hole of a 96-hole test plate was prepared using a Mueller Hinton medium (CAMHB) (and blood added as needed) supplemented with 20 mg/L of Ca^2+ and 10 mg/L of Mg^2+ to give a 2-fold dilution series. […] Each bacterium was cultured in CAMHB (blood added as needed) and added to each of the holes of the test plate at approximately 10000 CFU/mL. The cultures were cultivated at 37° C. for 20 hours, and growth of the bacteria was visually confirmed, and the lowest concentration without growth of the bacteria was defined as the minimum inhibitory concentration (MIC: Minimum Inhibitory Concentration).
as §2
(§4) Minimum inhibitory concentrations (MIC) were measured against drug-sensitive bacteria and drug-resistant bacteria.

[4] = tested on: vancomycin moderate resistant Staphylococcus aureus Mu50; test: Minimum inhibitory concentration on bacteria; settings: 20 h, read-out: minimum inhibitory concentration (MIC)
Experimental: as §3, §2, §4

[5] = tested on: Pseudomonas aeruginosa wild strain PAO1; test: Minimum inhibitory concentration on bacteria; settings: PAO1, 20 h, read-out: minimum inhibitory concentration (MIC)
Fecaris ATCC29212 = test: Minimum inhibitory concentration on bacteria; settings: 20 h, read-out: minimum inhibitory concentration (MIC)
Experimental: as §3, §2, §4

[6] = tested on: Vancomycin-resistant Fecaris ATCC51299; test: Minimum inhibitory concentration on bacteria; settings: 20 h, read-out: minimum inhibitory concentration (MIC)
Experimental: as §3, §2, §4

[7] = tested on: Vancomycin-resistant Fecaris NCTC12201; test: Minimum inhibitory concentration on bacteria; settings: 20 h, read-out: minimum inhibitory concentration (MIC)
Experimental: as §1, §2

[8] = Residual amount on SUS substrate after ultrasonic cleaning in water; assay type: physicochemical; settings: 125 μg/cm^2 applied on SUS substrate
Experimental: First, chlorhexidine was dissolved in acetone so as to be 1 mg/mL. […] Chlorhexidine gluconate was dissolved in acetone so as to be 1 mg/mL. […] Subsequently, the concentration of chlorhexidine and the concentration of chlorhexidine gluconate eluted in water were measured by UV-Vis (colorimetric method), and an amount of chlorhexidine and an amount of chlorhexidine gluconate remaining on the substrate were back-calculated from the concentration.

[9] = tested on: sheep defibrillated blood (red blood cells); settings: 30 min, pH 7.4
Experimental: 25 μL of sheep defibrillated blood, a Tyrode solution (NaCl 137 mM, KCl 2.7 mM, CaCl2) 1.0 mM, HEPES 10 mM (pH7.4)), and chlorhexidine gluconate or chlorhexidine solution were mixed. A mixture of 25 μL of sheep defibrillated blood and 975 μL of a Tyrode solution was used as a control, and a mixture of 25 μL of sheep defibrillated blood and 975 μL of purified water was used as a complete hemolysis. The mixtures were left standing at 37° C. for 30 minutes. Thereafter, the mixed liquid is centrifuged, and the supernatant is collected. Absorbance at 545 nm was measured. A hemolysis rate was calculated according to the following formula.

[10] = Calcein efflux rate, viral composition artificial membrane (liposomes); settings: for Calcein Efflux Rate (%) Virus Composition Artificial Membrane: 30° C., 30 minutes
[11] = Calcein efflux rate, bacterial composition artificial membrane (liposomes); settings: for Calcein Efflux Rate (%) Bacterial Composition Artificial Membrane: 30° C., 30 minutes
Candida ATCC12201 = test: Minimum inhibitory concentration on fungi; assay type: cell-based; settings: Candida ATCC12201, RPMI1640, 37 °C, 48 hours
Experimental: The bacteria were cultured in the RPMI1640 and added to each of the holes of the test plate at approximately 200 CFU/mL. The cultures were cultivated at 37 °C for 48 hours, and the growth of the bacteria was visually confirmed, and the minimum concentration without the growth of the bacteria was referred as MIC. Candida ATCC12201 was used as the fungi. […] The minimum inhibitory concentration (MIC) was measured against Candida.

[12] = 2 minutes ultrasonic cleaning in 60 ml of water at 25° C.
[13] = 10 minutes ultrasonic cleaning in 60 ml of water at 25° C.

| SMILES | MIC [1] | MIC [2] | MIC [3] | MIC [4] | MIC [5] | MIC (Fecaris ATCC29212) | MIC [6] | MIC [7] | residual amount on substrate [8, 12] | residual amount on substrate [8, 13] | MIC (Candida ATCC12201) | also measured |
| --- | --- | --- | --- | --- | --- | --- | --- | --- | --- | --- | --- | --- |
| CCn1cc(C(=O)O)c(=O)c2cc(F)c(N3CCNCC3)cc21 [Norfloxacin, norfloxacin] | 2 µg/mL (≈ 6.26 µM) | 4 µg/mL (≈ 12.5 µM) | ≥ 64 µg/mL | ≥ 64 µg/mL | 2 µg/mL (≈ 6.26 µM) | 16 µg/mL (≈ 50.1 µM) | 8 µg/mL (≈ 25.1 µM) | 16 µg/mL (≈ 50.1 µM) |  |  |  |  |
| [H]/N=C(\N/C(=N/[H])NCCCCCCNC(=N)NC(=N)Nc1ccc(Cl)cc1)Nc1ccc(Cl)cc1 [chlorhexidine gluconate] |  |  |  |  |  |  |  |  | 12.7 μg/cm^2 | could not be calculated |  | hemolytic activity ([9]; 0.05 %): 9.3%; hemolytic activity ([9]; 0.1 %): 75.8% |
| [H]/N=C(\N/C(=N/[H])NCCCCCCNC(=N)NC(=N)Nc1ccc(Cl)cc1)Nc1ccc(Cl)cc1 [chlorhexidine] | 0.5 µg/mL (≈ 0.989 µM) | 1 µg/mL (≈ 1.98 µM) | 4 µg/mL (≈ 7.91 µM) | 2 µg/mL (≈ 3.96 µM) | 16 µg/mL (≈ 31.7 µM) | 2 µg/mL (≈ 3.96 µM) | 4 µg/mL (≈ 7.91 µM) | 4 µg/mL (≈ 7.91 µM) | 45.4 μg/cm^2 | 43.0 μg/cm^2 | 2 µg/mL (≈ 3.96 µM) | Calcein Efflux Rate (%) Virus Composition Artificial Membrane ([10]; 1 μM (0.51 μg/mL)): 6.5%; Calcein Efflux Rate (%) Virus Composition Artificial Membrane ([10]; 2 μM (1.01 μg/mL)): 15.9%; Calcein Efflux Rate (%) Virus Composition Artificial Membrane ([10]; 4 μM (2.02 μg/mL)): 39.8%; Calcein Efflux Rate (%) Virus Composition Artificial Membrane ([10]; 8 μM (4.04 μg/mL)): 68.5%; Calcein Efflux Rate (%) Virus Composition Artificial Membrane ([10]; 16 μM (8.09 μg/mL)): 85.7%; Calcein Efflux Rate (%) Virus Composition Artificial Membrane ([10]; 32 μM (16.17 μg/mL)): 91.6%; Calcein Efflux Rate (%) Virus Composition Artificial Membrane ([10]; 64 μM (32.35 μg/mL)): 108.3%; Calcein Efflux Rate (%) Virus Composition Artificial Membrane ([10]; 128 μM (64.70 μg/mL)): 120.9%; concentration at which calcein was still confirmed to elute ([10]; virus composition artificial membrane): 0.51 µg/mL; Calcein Efflux Rate (%) Bacterial Composition Artificial Membrane ([11]; 1 μM (0.51 μg/mL)): −2.7%; Calcein Efflux Rate (%) Bacterial Composition Artificial Membrane ([11]; 2 μM (1.01 μg/mL)): 2.8%; Calcein Efflux Rate (%) Bacterial Composition Artificial Membrane ([11]; 4 μM (2.02 μg/mL)): 11.5%; Calcein Efflux Rate (%) Bacterial Composition Artificial Membrane ([11]; 8 μM (4.04 μg/mL)): 54.0%; Calcein Efflux Rate (%) Bacterial Composition Artificial Membrane ([11]; 16 μM (8.09 μg/mL)): 91.9%; Calcein Efflux Rate (%) Bacterial Composition Artificial Membrane ([11]; 32 μM (16.17 μg/mL)): 95.1%; Calcein Efflux Rate (%) Bacterial Composition Artificial Membrane ([11]; 64 μM (32.35 μg/mL)): 92.9%; Calcein Efflux Rate (%) Bacterial Composition Artificial Membrane ([11]; 128 μM (64.70 μg/mL)): 104.5%; concentration at which calcein was still found to elute ([11]; bacterial composition artificial membrane): 1.01 µg/mL; hemolytic activity ([9]; 0.028 %): 11.7%; hemolytic activity ([9]; 0.056 %): 30.2% |
| OC(Cn1cncn1)(Cn1cncn1)c1ccc(F)cc1F [fluconazole] |  |  |  |  |  |  |  |  |  |  | 0.25 µg/mL (≈ 0.816 µM) |  |
